The text below walks through data of US20260183262A1, “RNA-BINDING MOTIF PROTEIN 39 (RBM39) DEGRADERS FOR TREATMENT OF CANCERS” (RECURSION PHARMACEUTICALS, INC., priority 2022, published 2026).

Experiment [1] has as its system CDK9. As to the kind of experiment: IHC protein expression on OVCAR3 tumor samples: CDK9. Type of experiment: in vivo, human. Particulars: OVCAR3 tumor samples from Example 1 CDX study. The method, then:
• Sample Collection: 16 tumor samples were collected across the vehicle, olaparib, E7820 single agent, and paclitaxel arms from the in vivo OVCAR3 CDX study described in Example 1
• 1) Collect fresh specimens and place in 10% NBF (neutral-buffered formalin; fixative volume/tissue, 10˜20 folds), fix at room temperature for 24 hours. • 2) Trim the fixed tissue at the thickness of 3-5 mm. • 3) Move the tissue into the Embedding box, and snap the box into deionized water for 30 minutes, change water twice every 30 minutes. • 4) After washing, the fixed tissues are transferred to the LEICA ASP300S Vacuum Tissue Processor for dehydration.
• All stained sections are scanned with NanoZoomer-HT 2.0 Image system for 40× magnification. High resolution picture for whole section is generated and further quantification analyzed by HALO. All the scanned images are analyzed by HALO™ platform. The whole slide image is analyzed and necrosis and stroma area are excluded, only viable tumor area is scored. The intensity of specific staining is scored at four levels, 0 (negative), 1+(weak staining), 2+(medium staining), 3+(strong staining). The percentages of tumor cells at different intensity levels are evaluated with H-score. H-Score=(% at 0)×0+(% at 1)×1+(% at 2)×2+(% at 3)×3 (H-Score range is 0 to 300).

Experiment [2] addresses T1, CDK12+Cyclin K (Homo sapiens, UniProt Q9NYV4).
T1 construct: host or cells: HEK293 (transient transfection, FuGENE HD)
The experiment in a line: NanoBRET target engagement intracellular kinase assay in HEK293. Type of experiment: cell-based. The conditions noted are these: HEK293 cells transfected with CDK12-NanoLuc and CCNK; up to 10 μM. The method, then: • Cell culture: CDK12 NanoBRET assay kit was obtained from Reaction Biology with experiment performed by Pharmaron. HEK293 cells were cultured using 90% DMEM with 10% FBS. Cells were cultivated in T-75 flasks in a cell culture incubator set at 37° C., 5% CO^2, 95% relative humidity. Once cells reached 80-90% confluence, they were detached and split. Cultivated cells in T-75 flasks were rinsed with 5 mL PB and aspirated off. 1.5 mL trypsin was added and incubated at 37° C. for approximately 5 minutes or until the cells detached and started to float. Trypsin was inactivated by adding excess serum containing medium. • Transient Transfection of HEK293 Cells: Cell culture medium was removed from cell flask by aspiration and trypsinized, allowing cells to dissociate from flask. Trypsin was neutralized using cell culture medium and centrifuged at 200×g for 5 minutes to pellet cells. Medium was aspirated and resuspended in assay medium consisting of 99% Opti-MEM, reduced serum medium with no phenol red and 1% FBS. Density was adjusted to 2×10^5 cells/ml using assay medium. 10 μg/ml solution of DNA in Opti-MEM was prepared consisting of 9 μg/mL of CCNK, 1 ug/mL of Kinase-NanoLuc fusion vector DNA CDK12, and 1 mL of Opti-MEM. This solution was mixed thoroughly. 30 μl of FuGENE HD Transfection Reagent was added into each milliliter of DNA mixture to form lipid: DNA complex. Mixture was inverted 5-10 times and incubated at ambient temperature for 20 minutes to allow complexes to form. In a sterile, conical tub, 1 part of lipid DNA complex (1 mL) was mixed with 20 parts of HEK293 cells (20 mL) in suspension at 2×10^5 cells/mL. Tube was mixed gently by inversion 5 times. […] Lastly, 20 μL of this 3× complete substrate plus inhibitor solution was added to each well of the 384-well plate and incubated for 2-3 minutes at room temperature and read the plate on the Envision. • Calculation: BRET Ratio was calculated as follows: […]
(BRET reads energy transfer from a luciferase to a nearby fluorophore.)

Molecules are shown by their SMILES.

T1 sequence (Q9NYV4 whole entry): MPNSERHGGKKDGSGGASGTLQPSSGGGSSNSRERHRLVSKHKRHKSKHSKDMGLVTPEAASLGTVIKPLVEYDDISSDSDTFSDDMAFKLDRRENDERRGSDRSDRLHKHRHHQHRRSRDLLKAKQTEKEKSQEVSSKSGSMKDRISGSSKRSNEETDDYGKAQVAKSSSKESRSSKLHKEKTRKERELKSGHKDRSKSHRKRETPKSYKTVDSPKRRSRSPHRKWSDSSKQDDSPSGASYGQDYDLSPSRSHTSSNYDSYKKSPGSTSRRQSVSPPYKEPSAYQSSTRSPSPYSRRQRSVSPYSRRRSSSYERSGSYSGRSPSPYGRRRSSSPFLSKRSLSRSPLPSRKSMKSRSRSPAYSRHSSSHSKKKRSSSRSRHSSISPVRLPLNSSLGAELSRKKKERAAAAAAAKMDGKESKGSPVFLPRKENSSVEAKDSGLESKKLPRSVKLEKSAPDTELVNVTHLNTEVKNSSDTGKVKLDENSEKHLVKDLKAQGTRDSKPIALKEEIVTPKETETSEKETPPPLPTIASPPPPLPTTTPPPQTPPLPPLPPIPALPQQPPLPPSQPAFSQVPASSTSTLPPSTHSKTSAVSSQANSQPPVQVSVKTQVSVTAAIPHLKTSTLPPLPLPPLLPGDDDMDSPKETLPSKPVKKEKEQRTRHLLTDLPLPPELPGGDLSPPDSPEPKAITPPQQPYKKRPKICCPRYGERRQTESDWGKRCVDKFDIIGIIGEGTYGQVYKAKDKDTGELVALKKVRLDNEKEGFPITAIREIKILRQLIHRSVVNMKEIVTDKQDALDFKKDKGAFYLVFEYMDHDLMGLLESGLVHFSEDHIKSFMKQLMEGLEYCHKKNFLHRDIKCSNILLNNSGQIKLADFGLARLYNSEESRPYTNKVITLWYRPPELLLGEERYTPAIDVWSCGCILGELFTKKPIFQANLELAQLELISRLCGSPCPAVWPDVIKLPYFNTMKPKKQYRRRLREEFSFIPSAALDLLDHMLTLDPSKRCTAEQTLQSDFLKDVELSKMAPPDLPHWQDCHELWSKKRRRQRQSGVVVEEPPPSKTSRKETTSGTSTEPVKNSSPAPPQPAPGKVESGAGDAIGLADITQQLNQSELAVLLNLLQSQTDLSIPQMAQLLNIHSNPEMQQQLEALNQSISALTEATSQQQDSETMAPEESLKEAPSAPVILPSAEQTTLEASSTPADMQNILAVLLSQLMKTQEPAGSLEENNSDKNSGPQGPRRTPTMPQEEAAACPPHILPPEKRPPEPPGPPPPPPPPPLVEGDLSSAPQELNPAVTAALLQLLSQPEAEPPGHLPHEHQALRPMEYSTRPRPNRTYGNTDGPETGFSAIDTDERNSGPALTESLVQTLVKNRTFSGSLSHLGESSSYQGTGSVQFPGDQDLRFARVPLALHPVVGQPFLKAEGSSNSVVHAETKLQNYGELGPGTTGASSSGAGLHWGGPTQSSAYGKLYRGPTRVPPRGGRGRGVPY
T1 sequence (O75909 whole entry partner): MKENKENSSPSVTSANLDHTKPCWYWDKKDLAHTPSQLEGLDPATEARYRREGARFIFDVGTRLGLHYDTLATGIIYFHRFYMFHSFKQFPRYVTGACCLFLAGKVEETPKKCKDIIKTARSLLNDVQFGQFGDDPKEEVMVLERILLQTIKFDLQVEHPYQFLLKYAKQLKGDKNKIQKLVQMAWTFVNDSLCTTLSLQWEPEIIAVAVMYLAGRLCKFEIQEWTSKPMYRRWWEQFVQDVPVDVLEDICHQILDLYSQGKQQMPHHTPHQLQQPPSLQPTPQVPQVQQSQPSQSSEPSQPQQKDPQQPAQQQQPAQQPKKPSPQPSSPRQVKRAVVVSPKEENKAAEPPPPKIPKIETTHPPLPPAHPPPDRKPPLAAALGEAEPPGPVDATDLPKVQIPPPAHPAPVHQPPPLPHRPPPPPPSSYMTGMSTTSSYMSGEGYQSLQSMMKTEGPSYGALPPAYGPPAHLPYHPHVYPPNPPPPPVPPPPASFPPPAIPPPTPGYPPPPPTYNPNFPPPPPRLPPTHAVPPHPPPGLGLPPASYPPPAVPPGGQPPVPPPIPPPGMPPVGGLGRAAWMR

With `Cc1ccc(NS(=O)(=O)c2cccc(C#N)c2)c2[nH]cc(C#N)c12` [Compound E7820], the “CDK9 protein expression (IHC)” value in experiment [1] is “no changes”. In addition, the CDK12 kinase activity entry in experiment [2] is given as “does not affect CDK12 kinase activity”.
